The results in this text go back to publication PMC3454511 (The Journal of organic chemistry, 2012).

Series [1] can be described thus: BBB parallel artificial membrane permeability assay. The format is in vitro ADME. To be noted: for BBB PAMPA: Pe; for Papp: PAMPA.
The nature of a further series: Plasma stability, mouse. The following applies: % parent remaining at 5 h.
A short description of series [2]: Microsomal stability, mouse. To be noted: % parent remaining at 1 hour.
Series [3] is described as follows: Microsomal stability, human. The following applies: % parent remaining at 1 hour.
Series [4] is described as follows: Solubility in PBS and H2O, dry powder, 24 hour timepoint.
Series [5] is described as follows: Plasma protein binding by rapid-equilibrium dialysis, human. The following applies: 37 °C for 5 h. A general note: In equilibrium dialysis free small molecules cross a membrane that holds back macromolecules.
The next series deals with Caco-2 monolayer. Briefly: Bidirectional Caco-2 permeability. The format is in vitro ADME. To be noted: for Caco-2 A-B: A-B direction; for Caco-2 B-A: B-A direction.
The next series is described as follows: Plasma stability, human. To be noted: % parent remaining at 5 h.
Series [6] can be described thus: Plasma protein binding by rapid-equilibrium dialysis, mouse. The following applies: 37 °C for 5 h.
A further series is described as follows: physchem. The following applies: thermodynamic from solid.
The nature of series [7]: Bidirectional Caco-2 permeability. To be noted: human, Caco-2. It counts as in vitro ADME. Background: Caco-2 cells form a polarised layer with tight junctions and transporters.

Values after ≈ are worked out from the molar mass of the structure shown.

Regarding `CCCN1C(CO)C2c3ccccc3NCC21` (racemic) [31a, ((±)-2-Propyl-1,2,2a,3,4,8b-hexahydroazeto[2,3-c]quinolin-1-yl) methanol], the “BBB PAMPA” value in [1] is reported as 31 10^−6 cm s^−1. In the series “Plasma stability, mouse”, the plasma stability mouse is on record as 108 % remaining. The microsomal stability mouse in series [2] came out at 94 % remaining. Moreover, in [3], the microsomal stability human turned out to be 85 % remaining. In series [4], the “solubility H2O” value was 495 µM (≈ 115 µg/mL) and the “solubility PBS” value was more than 500 µM. Further, the protein binding human in series [5] was 10 % bound. Moreover, in the series on Caco-2 monolayer, the “Caco-2 A-B” value is 43 10^−6 cm.s^−1 and the “Caco-2 B-A” value was 29 10^−6 cm.s^−1. The plasma stability human in the series “Plasma stability, human” is reported as 97 % remaining. Further, the protein binding mouse in [6] is recorded as 22 % bound.

On to `CCCN1C(CO)C2c3ccccc3N(S(C)(=O)=O)CC21` (racemic) [31c, ((±)-4-(Methylsulfonyl)-2-propyl-1,2,2a,3,4,8b-hexahydroazeto[2,3-c]quinolin-1-yl) methanol], for which the “BBB PAMPA” value in [1] was 35 10^−6 cm s^−1. Moreover, in the series “Plasma stability, mouse”, the plasma stability mouse stood at 107 % remaining. Moreover, the microsomal stability mouse in series [2] stood at 34 % remaining. Further, the microsomal stability human in series [3] is 69 % remaining. Moreover, in series [4], the “solubility H2O” value was more than 500 µM and the “solubility PBS” value amounted to 478 µM (≈ 148 µg/mL). In addition, the protein binding human in [5] was found to be 45 % bound. In the series on Caco-2 monolayer, the “Caco-2 A-B” value is recorded as 56 10^−6 cm.s^−1 and the “Caco-2 B-A” value is recorded as 64 10^−6 cm.s^−1. Further, the plasma stability human in the series “Plasma stability, human” turned out to be 101 % remaining. In addition, the protein binding mouse in [6] is 50 % bound.

Regarding `CCCN1C2CNCC1C2c1ccccc1` (centres unmarked) [27a, 7-Phenyl-6-propyl-3,6-diazabicyclo[3.1.1]heptane], the Papp (commonly the rate of passage across a membrane or cell layer, normalised by area and donor concentration) in series [1] stood at 4 ×10⁻⁶ cm/s. Also, in the series “Plasma stability, mouse”, the plasma stability mouse worked out at 103 % remaining. For the same compound, the microsomal stability mouse in series [2] is 79 % remaining. In addition, the microsomal stability human in [3] was determined as 94 % remaining. Further, in series [5], the protein binding human is given as 49 % bound. For the same compound, the solubility – broadly, the dissolved amount per volume that the medium holds – at 24 h in the series “physchem” (PBS, aqueous buffer) was more than 500 µM; in the series “physchem” (water), more than 500 µM. Further, the Papp A→B (as a rule, how fast a substance crosses the layer from the apical side) in series [7] was 30 ×10⁻⁶ cm/s. In series [7], the Papp B→A (usually the apparent permeability from the basolateral to the apical side of a cell layer) is 22 ×10⁻⁶ cm/s. Further, in the series “Plasma stability, human”, the plasma stability human turned out to be 102 % remaining. Besides, the protein binding mouse in series [6] is reported as 35 % bound.

As to `CCCN1C2CN(Cc3ccc(F)cc3)CC1C2c1ccccc1` (centres unmarked) [27d, 3-(4-Fluorobenzyl)-7-phenyl-6-propyl-3,6-diazabicyclo[3.1.1]heptane], the Papp in series [1] was 111 ×10⁻⁶ cm/s. For the same compound, the plasma stability mouse in the series “Plasma stability, mouse” was found to be 90 % remaining. The microsomal stability mouse in series [2] worked out at 42 % remaining. Besides, in [3], the microsomal stability human came out at 55 % remaining. Further, the protein binding human in series [5] is given as 98 % bound. Also, the concentration in solution in the series “physchem” (PBS, aqueous buffer) (solubility at 24 h) came to 335 µM (≈ 109 µg/mL). The same compound gave a solubility at 24 h in “physchem” (water) of 346 µM (≈ 112 µg/mL). Moreover, in series [7], the Papp A→B was 14 ×10⁻⁶ cm/s and the Papp B→A was 7 ×10⁻⁶ cm/s. Moreover, the plasma stability human in the series “Plasma stability, human” was 71 % remaining. In addition, the protein binding mouse in series [6] turned out to be 98 % bound.

Take `CN1CC(=O)N2[C@H](CO)[C@H](c3ccccc3)[C@@H]2C1` [28a, (6R,7R,8S)-8-(Hydroxymethyl)-4-methyl-7-phenyl-1,4-diazabicyclo[4.2.0]octan-2-one]: the plasma stability mouse in “Plasma stability, mouse” was 116 % remaining. In addition, the microsomal stability mouse in series [2] is given as 104 % remaining. Besides, the microsomal stability human in [3] is recorded as 112 % remaining. In the series “physchem” (PBS, aqueous buffer), this compound registered a solubility at 24 h of more than 500 µM. Besides, in series [7], the Papp A→B was 43 ×10⁻⁶ cm/s and the Papp B→A was found to be 31 ×10⁻⁶ cm/s. In addition, the plasma stability human in the series “Plasma stability, human” was determined as 99 % remaining.

`O=C1CNC[C@H]2[C@@H](c3ccccc3)[C@@H](COC(c3ccccc3)(c3ccccc3)c3ccccc3)N12` [28b, (6R,7R,8S)-7-Phenyl-8-((trityloxy)methyl)-1,4-diazabicyclo[4.2.0]octan-2-one] displayed a solubility at 24 h in the series “physchem” (PBS, aqueous buffer) of more than 500 µM. In [7], this compound returned a Papp A→B of 12 ×10⁻⁶ cm/s and a Papp B→A of 17 ×10⁻⁶ cm/s.

On to `CS(=O)(=O)N1CC(=O)N2[C@H](CO)[C@H](c3ccccc3)[C@@H]2C1` [28c, (6R,7R,8S)-8-(Hydroxymethyl)-4-(methylsulfonyl)-7-phenyl-1,4-diazabicyclo [4.2.0] octan-2-one], for which, in “Plasma stability, mouse”, the plasma stability mouse is reported as 106 % remaining. Moreover, the microsomal stability mouse in [2] is listed as 100 % remaining. Besides, the microsomal stability human in series [3] was 104 % remaining. Moreover, the protein binding human in [5] was −4.6 % bound. The same compound came in with a solubility at 24 h in “physchem” (PBS, aqueous buffer) of more than 500 µM. In addition, in [7], the Papp A→B turned out to be 17 ×10⁻⁶ cm/s and the Papp B→A is 20 ×10⁻⁶ cm/s. Besides, the plasma stability human in the series “Plasma stability, human” was found to be 78 % remaining. Further, in series [6], the protein binding mouse is given as −2.3 % bound.

The compound `OC[C@@H]1[C@H](c2ccccc2)[C@@H]2CNCCCCN12` [29b, ((8R,9R,10S)-9-Phenyl-1,6-diazabicyclo[6.2.0]decan-10-yl)methanol] yielded a Papp in [1] of 6 ×10⁻⁶ cm/s. Also, in the series “Plasma stability, mouse”, the plasma stability mouse is 94 % remaining. In addition, in [2], the microsomal stability mouse is 89 % remaining. The microsomal stability human in series [3] was determined as 86 % remaining. In [5], the protein binding human was 8 % bound. In “physchem” (PBS, aqueous buffer), this compound had a solubility at 24 h of more than 500 µM. The amount in solution in “physchem” (water) (solubility at 24 h) came to 491 µM (≈ 121 µg/mL). In series [7], this compound came in with a Papp A→B of 2 ×10⁻⁶ cm/s and a Papp B→A of 8 ×10⁻⁶ cm/s. Moreover, in “Plasma stability, human”, the plasma stability human is on record as 99 % remaining. The protein binding mouse in series [6] is reported as 9 % bound.

`CN1CCCCN2[C@H](CO)[C@H](c3ccccc3)[C@@H]2C1` [29c, ((8R,9R,10S)-6-Methyl-9-phenyl-1,6-diazabicyclo[6.2.0]decan-10-yl) methanol] showed a Papp in series [1] of 9 ×10⁻⁶ cm/s. In addition, the plasma stability mouse in “Plasma stability, mouse” was 78 % remaining. For the same compound, the microsomal stability mouse in series [2] was 97 % remaining. Further, the microsomal stability human in series [3] was 96 % remaining. In addition, the protein binding human in series [5] worked out at 1 % bound. In addition, the solubility at 24 h is 494 µM (≈ 129 µg/mL) in “physchem” (PBS, aqueous buffer) and more than 500 µM in the series “physchem” (water). Moreover, in series [7], the Papp A→B was 14 ×10⁻⁶ cm/s. The Papp B→A in series [7] came out at 21 ×10⁻⁶ cm/s. Moreover, the plasma stability human in the series “Plasma stability, human” turned out to be 82 % remaining. For the same compound, the protein binding mouse in series [6] was 5 % bound.

As for `CCCN1[C@H](CO)[C@H](c2ccccc2)C12CNC2` [30a, (2S,3S)-1-Propyl-2-hydroxymethyl-3-phenyl-1,6-diazaspiro[3.3]heptane], the plasma stability mouse in “Plasma stability, mouse” is 108 % remaining. In series [2], the microsomal stability mouse worked out at 93 % remaining. Also, the microsomal stability human in [3] came out at 95 % remaining. Besides, the solubility at 24 h in the series “physchem” (PBS, aqueous buffer) is more than 500 µM. In [7], this compound showed a Papp A→B of 3 ×10⁻⁶ cm/s and a Papp B→A of 12 ×10⁻⁶ cm/s. Besides, the plasma stability human in “Plasma stability, human” stood at 106 % remaining.

Consider `CCCN1[C@H](CO)[C@H](c2ccccc2)C12CN(C)C2` [30b, (2S,3S)-1-Propyl-2-hydroxymethyl-3-phenyl-6-methyl-1,6-diazaspiro[3.3]heptane], for which the plasma stability mouse in the series “Plasma stability, mouse” was determined as 106 % remaining. Moreover, the microsomal stability mouse in series [2] is listed as 98 % remaining. For the same compound, in series [3], the microsomal stability human is listed as 99 % remaining. The protein binding human in series [5] was determined as 28 % bound. In addition, in the series “physchem” (PBS, aqueous buffer), the solubility at 24 h is more than 500 µM. Further, in series [7], the Papp A→B is 33 ×10⁻⁶ cm/s and the apparent permeability from basolateral to apical (Papp B→A) turned out to be 56 ×10⁻⁶ cm/s. Further, the plasma stability human in “Plasma stability, human” was 86 % remaining. Besides, in [6], the protein binding mouse is −6.0 % bound.

In the case of `CCCN1[C@H](CO)[C@H](c2ccccc2)C12CN(C(C)=O)C2` [30c, (2S,3S)-1-Propyl-2-hydroxymethyl-3-phenyl-6-acetyl-1,6-diazaspiro[3.3]heptane], the plasma stability mouse in “Plasma stability, mouse” was 97 % remaining. The microsomal stability mouse in series [2] was determined as 89 % remaining. Moreover, the microsomal stability human in series [3] was determined as 94 % remaining. In addition, in [5], the protein binding human is 37 % bound. Besides, the solubility at 24 h in “physchem” (PBS, aqueous buffer) was more than 500 µM. In [7], this compound returned a Papp A→B of 29 ×10⁻⁶ cm/s and a Papp B→A of 35 ×10⁻⁶ cm/s. Besides, the plasma stability human in the series “Plasma stability, human” is reported as 93 % remaining. Further, the protein binding mouse in series [6] turned out to be 32 % bound.

`CCCN1[C@@H]2COc3ccccc3[C@@H]2[C@@H]1CNC(=O)c1ccccc1` [32a, N-(((1R,2aS,8bR)-2-Propyl-2,2a,3,8b-tetrahydro-1H-chromeno[3,4-b]azet-1-yl)methyl) benzamide]: in “Plasma stability, mouse”, the plasma stability mouse is on record as 102 % remaining. Moreover, the microsomal stability mouse in [2] is given as 0 % remaining. The microsomal stability human in [3] was 0 % remaining. Also, the protein binding human in series [5] is listed as 95 % bound. The amount in solution in the series “physchem” (PBS, aqueous buffer) (solubility at 24 h) came to 43 µM (≈ 14.5 µg/mL). In series [7], this compound returned a Papp A→B of 59 ×10⁻⁶ cm/s and a Papp B→A of 52 ×10⁻⁶ cm/s. Moreover, in the series “Plasma stability, human”, the plasma stability human is recorded as 94 % remaining. Also, in [6], the protein binding mouse is given as 91 % bound.

On to `CCCN1[C@@H]2COc3ccccc3[C@@H]2[C@@H]1CNS(C)(=O)=O` [32b, N-(((1R,2aS,8bR)-2-Propyl-2,2a,3,8b-tetrahydro-1H-chromeno[3,4-b]azet-1-yl)methyl) methanesulfonamide], for which the plasma stability mouse in “Plasma stability, mouse” was determined as 105 % remaining. In addition, in [2], the microsomal stability mouse turned out to be 63 % remaining. Moreover, the microsomal stability human in series [3] amounted to 73 % remaining. Moreover, the protein binding human in series [5] is recorded as 37 % bound. This compound also registered a solubility at 24 h in “physchem” (PBS, aqueous buffer) of 453 µM (≈ 141 µg/mL). In [7], this compound displayed a Papp A→B of 66 ×10⁻⁶ cm/s and a Papp B→A of 57 ×10⁻⁶ cm/s. Further, the plasma stability human in “Plasma stability, human” stood at 97 % remaining. For the same compound, the protein binding mouse in series [6] was 37 % bound.
